Positions count from the first letter of the chain named.

From publication PMC7785020, “A unique hormonal recognition feature of the human glucagon-like peptide-2 receptor” (Cell Research, 2020) come the findings set out here.

What all share (parameters): WT (1–553); expressed in transfected cells
The target in test [1] is T1, GLP-2R Y182^1.43A (Homo sapiens, UniProt O95838, Y182A).
T1 sequence (O95838 1-553 Y182A): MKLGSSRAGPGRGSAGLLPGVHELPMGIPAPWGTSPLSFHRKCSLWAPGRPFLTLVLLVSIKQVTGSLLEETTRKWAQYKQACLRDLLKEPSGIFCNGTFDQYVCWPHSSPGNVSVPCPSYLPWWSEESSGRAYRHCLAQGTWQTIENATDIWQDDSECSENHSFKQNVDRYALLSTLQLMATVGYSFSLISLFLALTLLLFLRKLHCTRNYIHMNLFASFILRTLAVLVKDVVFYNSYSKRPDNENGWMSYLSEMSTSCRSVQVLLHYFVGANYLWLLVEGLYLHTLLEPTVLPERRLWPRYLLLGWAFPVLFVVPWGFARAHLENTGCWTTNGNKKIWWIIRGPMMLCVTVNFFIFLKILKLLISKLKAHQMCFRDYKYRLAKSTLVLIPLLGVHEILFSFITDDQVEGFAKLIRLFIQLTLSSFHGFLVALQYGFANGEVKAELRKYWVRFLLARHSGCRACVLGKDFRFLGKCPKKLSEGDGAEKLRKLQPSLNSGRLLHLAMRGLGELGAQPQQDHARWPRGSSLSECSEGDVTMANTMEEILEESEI
The test can be described thus: radioligand competition binding, Y182^1.43A. The note with it: COS-7, Y182^1.43A; [^125I]GLP-2(1–33, M10Y) 10–15 pM, 4 h, 4 °C; mean ± SEM, n ≥ 3 in duplicate. As to the method:
(§1) A stepwise oxidation reaction was performed by addition of 6 aliquots of 5 µL ChloramineT (30 µL/mL) with a 1-min interval during constant stirring. The reaction was terminated by the addition of 400 µL phase A (0.1% trifluoracetic acid) before being fractionated into 1 mL volume by reverse-phase high-performance liquid chromatography (RP-HPLC, Waters 600 SimiPrep system) on a C18 column. The iodinated protein was […] by increasing concentrations of phase B (Acetonitrile + 0.1% TFA) and tested for competitive binding ability.
(§2) One day before transfection, the COS-7 cells were seeded in 75 cm^2 culture flasks (3 million cells/flask) in DMEM, containing 3.9 g/L NaHCO3 and supplemented with 10% FBS, 1% L-glutamine, 180 units/mL penicillin and 45 µg/mL streptomycin. After an overnight culture at 37 °C, 10% CO2 and 95% air humidity, the cells were transiently transfected with different GLP-2R constructs or pcDNA3.1 vector as previously described.[52] Following 24-h incubation, the cells were transferred to Costa® microtiter plates (150,000 cells/well, PerkinElmer) to achieve a 5%–10% specific binding. […] The cells were then washed twice in binding buffer (4 °C), lysed and counted for radioactivity using a Wallac Gamma Counter (PerkinElmer).
(In general: In a radioligand displacement assay an active substance lowers the binding of a labelled ligand.)

Test [2] deals with T2, GLP-2R Y186^1.47A (Homo sapiens, UniProt O95838, Y186A).
T2 sequence (O95838 1-553 Y186A): T1 sequence (O95838 1-553 Y182A) with A182Y, Y186A
Nature of the test: radioligand competition binding, Y186^1.47A. The note with it: COS-7, Y186^1.47A; [^125I]GLP-2(1–33, M10Y) 10–15 pM, 4 h, 4 °C; n ≥ 3 in duplicate. As to the method:
as §1, §2

The target in test [3] is T3, GLP-2R H268^3.37A (Homo sapiens, UniProt O95838, H268A).
T3 sequence (O95838 1-553 H268A): T1 sequence (O95838 1-553 Y182A) with A182Y, H268A
Nature of the test: radioligand competition binding, H268^3.37A. The settings on record: COS-7, H268^3.37A; [^125I]GLP-2(1–33, M10Y) 10–15 pM, 4 h, 4 °C; mean ± SEM, n ≥ 3 in duplicate. Here is the method:
as §1, §2

Consider `CC[C@H](C)[C@H](NC(=O)[C@H](Cc1ccccc1)NC(=O)[C@H](CC(=O)O)NC(=O)[C@H](CCCNC(=N)N)NC(=O)[C@H](C)NC(=O)[C@H](C)NC(=O)[C@H](CC(C)C)NC(=O)[C@H](CC(N)=O)NC(=O)[C@H](CC(=O)O)NC(=O)[C@H](CC(C)C)NC(=O)[C@@H](NC(=O)[C@@H](NC(=O)[C@H](CC(N)=O)NC(=O)[C@H](CCSC)NC(=O)[C@H](CCC(=O)O)NC(=O)[C@H](CC(=O)O)NC(=O)[C@H](CO)NC(=O)[C@H](Cc1ccccc1)NC(=O)[C@H](CO)NC(=O)CNC(=O)[C@H](CC(=O)O)NC(=O)[C@H](C)NC(=O)[C@@H](N)Cc1c[nH]cn1)[C@@H](C)O)[C@@H](C)CC)C(=O)N[C@@H](CC(N)=O)C(=O)N[C@@H](Cc1c[nH]c2ccccc12)C(=O)N[C@@H](CC(C)C)C(=O)N[C@H](C(=O)N[C@@H](CCC(N)=O)C(=O)N[C@H](C(=O)N[C@@H](CCCCN)C(=O)N[C@H](C(=O)N[C@H](C(=O)N[C@@H](CC(=O)O)C(=O)O)[C@@H](C)O)[C@@H](C)CC)[C@@H](C)O)[C@@H](C)CC` [Human GLP-2 (1–33)], for which the results for the “% Binding of WT” value in test [1], in test [2] and in test [3] were 3.4 ± 1.0 %, “N.B” and 2.1 ± 0.8 %, respectively.

For the molecule `CC[C@H](C)[C@H](NC(=O)[C@H](Cc1ccccc1)NC(=O)[C@H](CC(=O)O)NC(=O)[C@H](CCCNC(=N)N)NC(=O)[C@H](C)NC(=O)[C@H](C)NC(=O)[C@H](CC(C)C)NC(=O)[C@H](CC(N)=O)NC(=O)[C@H](CC(=O)O)NC(=O)[C@H](CC(C)C)NC(=O)[C@@H](NC(=O)[C@@H](NC(=O)[C@H](CC(N)=O)NC(=O)[C@H](CCSC)NC(=O)[C@H](CCC(=O)O)NC(=O)[C@H](CC(=O)O)NC(=O)[C@H](CO)NC(=O)[C@H](Cc1ccccc1)NC(=O)[C@H](CO)NC(=O)CNC(=O)[C@H](CC(=O)O)NC(=O)CNC(=O)[C@@H](N)Cc1c[nH]cn1)[C@@H](C)O)[C@@H](C)CC)C(=O)N[C@@H](CC(N)=O)C(=O)N[C@@H](Cc1c[nH]c2ccccc12)C(=O)N[C@@H](CC(C)C)C(=O)N[C@H](C(=O)N[C@@H](CCC(N)=O)C(=O)N[C@H](C(=O)N[C@@H](CCCCN)C(=O)N[C@H](C(=O)N[C@H](C(=O)N[C@@H](CC(=O)O)C(=O)O)[C@@H](C)O)[C@@H](C)CC)[C@@H](C)O)[C@@H](C)CC` [Teduglutide], the “% Binding of WT” value in test [1] was 3.2 ± 1.3 %; in test [2], “N.B”; in test [3], 0.7 ± 1.8 %.
